One data set concerns HIV-IIIb. The data set is described as follows: Test A: Antiviral Assay in MT4 Cells. Format: cell-based, HIV-1. Particulars: Human immunodeficiency virus 1, IIIB, MT4, 120 h; for inhibition at 0.2 µM: read-out: % inhibition at 0.2 μM; for inhibition at 2 µM: read-out: % inhibition at 2 μM. As to the method: Test A: Antiviral Assay in MT4 Cells
MT-4 cells were next mixed with HIV-IIIb at an m.o.i of 0.003 for 1 hour, after which time 35 μL of virus/cell mixture (2000 cells) was immediately added to each well containing 40 μL of diluted compound. The plates were then incubated at 37° C. for 5 days. […] Cell lysis was carried out by incubating at room temperature for 10 min and then chemiluminescence was read.

Data set [1] in a line: Test B: Cytotoxicity Assay. Particulars: human, uninfected MT-4 cells, same protocol as Test A. Format: cell-based. In outline:
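Uninfected MT-4 cells (2000 per well) incubated with diluted compound at 37° C. for 5 days, following the antiviral protocol without HIV-IIIb.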

We go through 10 compounds from patent US20140303164A1, “THERAPEUTIC COMPOUNDS” (Gilead Sciences, Inc., priority 2013, published 2014).

As to `C[C@H](O)C(=O)Nc1nn(C)c2c(-c3ccc(C#CC(C)(C)O)nc3[C@H](Cc3cc(F)cc(F)c3)NC(=O)Cn3nc(C(F)F)c4c3C(F)(F)[C@@H]3C[C@H]43)ccc(Cl)c12` [Compound 103, (S)—N-(4-chloro-7-(2-((S)-1-(2-((3bS,4aR)-3-(difluoromethyl)-5,5-difluoro-3b,4,4a,5-tetrahydro-1H-cyclopropa[3,4]cyclopenta[1,2-c]pyrazol-1-yl)acetamido)-2-(3,5-difluorophenyl)ethyl)-6-(3-hydroxy-3-methylbut-1-yn-1-yl)pyridin-3-yl)-1-methyl-1H-indazol-3-yl)-2-hydroxypropanamide], in the data set on HIV-IIIb, the inhibition at 0.2 µM was 100% and the inhibition at 2 µM turned out to be 100%. The CC50 at 5 days in data set [1] amounted to 6.79 µM.
Turning to `Cn1nc(NS(C)(=O)=O)c2c(Cl)ccc(-c3ccc(C#CC(C)(O)CF)nc3[C@H](Cc3cc(F)cc(F)c3)NC(=O)Cn3nc(C(F)F)c4c3C(F)(F)[C@@H]3C[C@H]43)c21` (stereo partly drawn) [Compound 144, N-((1S)-1-(3-(4-chloro-1-methyl-3-(methylsulfonamido)-1H-indazol-7-yl)-6-(4-fluoro-3-hydroxy-3-methylbut-1-yn-1-yl)pyridin-2-yl)-2-(3,5-difluorophenyl)ethyl)-2-((3b-S,4aR)-3-(difluoromethyl)-5,5-difluoro-3b,4,4a,5-tetrahydro-1H-cyclopropa[3,4]cyclopenta[1,2-c]pyrazol-1-yl)acetamide], in the data set on HIV-IIIb, the inhibition at 0.2 µM amounted to 95% and the inhibition at 2 µM worked out at 95%. Moreover, the midpoint of cytotoxicity in data set [1], the CC50 at 5 days, lay at 16.2 µM.
For the compound `CC(C)(O)C#Cc1ccc(-c2cccc3c(N)nccc23)c([C@H](Cc2cc(F)cc(F)c2)NC(=O)Cn2nc(C(F)(F)F)c3c2C(F)(F)[C@@H]2C[C@H]32)n1` [Compound 73, N—((S)-1-(3-(1-aminoisoquinolin-5-yl)-6-(3-hydroxy-3-methylbut-1-yn-1-yl)pyridin-2-yl)-2-(3,5-difluorophenyl)ethyl)-2-((3b-S,4aR)-5,5-difluoro-3-(trifluoromethyl)-3b,4,4a,5-tetrahydro-1H-cyclopropa[3,4]cyclopenta[1,2-c]pyrazol-1-yl)acetamide], in the data set with HIV-IIIb, the inhibition at 0.2 µM was 86% and the inhibition at 2 µM was 86%. The midpoint of cytotoxicity in data set [1], the CC50 at 5 days, lay at 4.49 µM.
As to `Cn1nc(NS(C)(=O)=O)c2c(Cl)ccc(-c3ccc(C#CC(C)(C)C)nc3[C@H](Cc3cc(F)cc(F)c3)NC(=O)Cn3nc(C(F)F)c4c3C(F)(F)[C@@H]3C[C@H]43)c21` [Compound 131E, N—((S)-1-(3-(4-chloro-1-methyl-3-(methylsulfonamido)-1H-indazol-7-yl)-6-(3,3-dimethylbut-1-yn-1-yl)pyridin-2-yl)-2-(3,5-difluorophenyl)ethyl)-2-((3b-S,4aR)-3-(difluoromethyl)-5,5-difluoro-3b,4,4a,5-tetrahydro-1H-cyclopropa[3,4]cyclopenta[1,2-c]pyrazol-1-yl)acetamide], in the data set on HIV-IIIb, the inhibition at 0.2 µM came out at 95% and the inhibition at 2 µM was 96%. Also, the half-maximal cytotoxic concentration (CC50) at 5 days in data set [1] amounted to 22.5 µM.
For `CN(C)C(=O)c1nn(CC(=O)N[C@@H](Cc2cc(F)cc(F)c2)c2nc(C#CC(C)(C)O)ccc2-c2ccc(Cl)c3c(NS(C)(=O)=O)nn(C)c23)c2c1[C@H]1C[C@H]1C2(F)F` [Compound 164, (3bS,4aR)-1-(2-(((S)-1-(3-(4-chloro-1-methyl-3-(methylsulfonamido)-1H-indazol-7-yl)-6-(3-hydroxy-3-methylbut-1-yn-1-yl)pyridin-2-yl)-2-(3,5-difluorophenyl)ethyl)amino)-2-oxoethyl)-5,5-difluoro-N,N-dimethyl-3b,4,4a,5-tetrahydro-1H-cyclopropa[3,4]cyclopenta[1,2-c]pyrazole-3-carboxamide], in the data set on HIV-IIIb, the inhibition at 0.2 µM is 96% and the inhibition at 2 µM worked out at 97%. In data set [1], the CC50 at 5 days was determined as 40.5 µM.
On the same counts, the results for `Cn1nc(NCC#N)c2c(Cl)ccc(-c3ccc(C#CC(C)(C)O)nc3[C@H](Cc3cc(F)cc(F)c3)NC(=O)Cn3nc(C(F)F)c4c3C(F)(F)[C@@H]3C[C@H]43)c21` [Compound 93, N—((S)-1-(3-(4-chloro-3-((cyanomethyl)amino)-1-methyl-1H-indazol-7-yl)-6-(3-hydroxy-3-methylbut-1-yn-1-yl)pyridin-2-yl)-2-(3,5-difluorophenyl)ethyl)-2-((3b-S,4aR)-3-(difluoromethyl)-5,5-difluoro-3b,4,4a,5-tetrahydro-1H-cyclopropa[3,4]cyclopenta[1,2-c]pyrazol-1-yl)acetamide] are 92%, 92% and 4.81 µM.
For `Cc1c(CCO)c(C2CC2)nn1CC(=O)N[C@@H](Cc1cc(F)cc(F)c1)c1nc(C#CC(C)(C)O)ccc1-c1ccc(Cl)c2c(NS(C)(=O)=O)nn(C)c12` [Compound 167, (S)—N-(1-(3-(4 chloro-1-methyl-3-(methylsulfonamido)-1H-indazol-7-yl)-6-(3-hydroxy-3-methylbut-1-yn-1-yl)pyridin-2-yl)-2-(3,5-difluorophenyl)ethyl)-2-(3-cyclopropyl-4-(2-hydroxyethyl)-5-methyl-1H-pyrazol-1-yl)acetamide], in that order: 93%, 93% and 34.1 µM.
`CN(C)CC#Cc1ccc(-c2cccc3c(NS(C)(=O)=O)nn(C)c23)c([C@H](Cc2cc(F)cc(F)c2)NC(=O)Cn2nc(C(F)(F)F)c3c2C(F)(F)[C@@H]2C[C@H]32)n1` [Compound 61B, 2-((3bS,4aR)-5,5-difluoro-3-(trifluoromethyl)-3b,4,4a,5-tetrahydro-1H-cyclopropa[3,4]cyclopenta[1,2-c]pyrazol-1-yl)-N—((S)-2-(3,5-difluorophenyl)-1-(6-(3-(dimethylamino)prop-1-yn-1-yl)-3-(1-methyl-3-(methylsulfonamido)-1H-indazol-7-yl)pyridin-2-yl)ethyl)acetamide]: in the data set with HIV-IIIb, the inhibition at 0.2 µM is 96% and the inhibition at 2 µM was determined as 96%. This compound gave a CC50 at 5 days in data set [1] of 14.3 µM.
On to `CC(C)(O)C#Cc1ccc(-c2ccc(Cl)n3c(N)nnc23)c([C@H](Cc2cc(F)cc(F)c2)NC(=O)Cn2nc(C(F)F)c3c2C(F)(F)[C@@H]2C[C@H]32)n1` [Compound 106E, N—((S)-1-(3-(3-amino-5-chloro-[1,2,4]triazolo[4,3-a]pyridin-8-yl)-6-(3-hydroxy-3-methylbut-1-yn-1-yl)pyridin-2-yl)-2-(3,5-difluorophenyl)ethyl)-2-((3b-S,4aR)-3-(difluoromethyl)-5,5-difluoro-3b,4,4a,5-tetrahydro-1H-cyclopropa[3,4]cyclopenta[1,2-c]pyrazol-1-yl)acetamide], for which, in the data set with HIV-IIIb, the inhibition at 0.2 µM was determined as 95% and the inhibition at 2 µM is 96%. The compound also registered a CC50 at 5 days in data set [1] of 12.4 µM.
For `Cn1nc(NC(=O)C2CC2)c2c(Cl)ccc(-c3ccc(C#CC(C)(C)O)nc3[C@H](Cc3cc(F)cc(F)c3)NC(=O)Cn3nc(C(F)F)c4c3C(F)(F)[C@@H]3C[C@H]43)c21` [Compound 86, N-(4-chloro-7-(2-((S)-1-(2-((3b-S,4aR)-3-(difluoromethyl)-5,5-difluoro-3b,4,4a,5-tetrahydro-1H-cyclopropa[3,4]cyclopenta[1,2-c]pyrazol-1-yl)acetamido)-2-(3,5-difluorophenyl)ethyl)-6-(3-hydroxy-3-methylbut-1-yn-1-yl)pyridin-3-yl)-1-methyl-1H-indazol-3-yl)cyclopropanecarboxamide], in that order: 99%, 99% and 6.47 µM.
